The source of these data is patent US20130053438A1, “PHARMACEUTICAL COMPOSITIONS COMPRISING LIGNANS AND THEIR DERIVATIVES FOR THE MEDICAL MANAGEMENT OF ANGIOGENESIS AND HYPOVASCULARITY” (Universitat Innsbruck, priority 2010, published 2013).

Several values for one entry are separate records, joined by “and”; a condition that tells them apart may be missing. Equal values may be shown once.

Data set [1] concerns wound closure in pigs (Deutsches Landschwein). Kind of data set: porcine model for time of wound closure, topical administration. Format: in vivo, pig. On the procedure: FIG. 9. […] N for control and Leoligin treated wounds is 5. […] Data assessment was conducted in a blinded manner.
For the large animal model 30-35 kg pigs (Deutsches Landschwein) was used. Animals were supplied by, kept, and experiments were performed at the Central Animal Testing Facility of the University of Innsbruck and the “Besondere Einrichtung für Biomedizinische Forschung” of the Medical University of Vienna. Pigs received a standard growth diet.
One hour prior to anaesthesia pigs received an intramuscular injection of 4 mg/kg Azaperon and 0.1 mg/kg Atropin. Full anaesthesia was achieved by intravenously applied 2-3 mg/kg Propofol and 15 mg Piritramid, followed by intubation of animals and ventilation with 30% O2. Muscle relaxation was achieved by an initial does of 8 mg Pancuronium and repetition with 0.2 mg/kg/h Pancuronium. Maintenance of anaesthesia was achieved by continuous infusion with 8-12 mg/kg/h Propofol and 15 mg Piritramid.
In the course of an experimental bypass surgery in the pig, after re-implantation of the graft (into the carotis artery) Leoligin (“Leo”) or NaCl control solution was added into the wound topically (the situs was filled with control solution (0.9% NaCl) or a solution containing leoligin at 100 μM. By optical inspection every 24 hours of blinded researchers the time to wound closure/healing was documented. Animals with infected wounds were excluded from the analysis.

The subject of data set [2] is venous bypass grafts. The following applies: prior art, Reisinger (2009); cited from earlier work.
The subject of data set [3] is small muscle cells and endothelial cells. As to conditions: prior art, Reisinger et al. (2009); cited from earlier work.
Data set [4] relates to human microvascular endothelial cells. Kind of data set: capillary (endothelial tube) formation on matrigel substrate. The data set is classed as cell-based. As to conditions: within 6 hrs of incubation, quantified by imaging software. An excerpt: (§1) In particular 5-methoxy-leoligin has been shown and exemplified in the appended examples as a potent activator of angiogenesis. […] Furthermore, the pro-angiogenic activity of 5-methoxy-leoligin has been tested in vivo in the chorioallantois membrane (CAM) assay of chicken embryos. […] These assays are recognized in the art to represent functional assays for in vitro and in vivo angiogenesis; see Methods in Endothelial cell biology, H G Augustin Ed.; 2004, Springer Lab Manual, ISBN 3-540-21397-X, Springer —Verlag Berlin, Heidelberg, N.Y..
Cells form tube-like structures between each other within 6 hrs of incubation. Those were quantified by an imaging software.

For data set [5], the system named is HUVECs. In words: angiogenic sprouting in a 3-D Collagen matrix (spheroid sprouting assay). As to conditions: after 24 h of stimulation. Format: cell-based.
From the text: as §1
These sprouts were analyzed after 24 h of stimulation and “cumulative sprout length” (CSL) of each sprout was quantified in μm.

Data set [6] deals with chorioallantois membrane (CAM) of chicken embryos. Kind of data set: chicken chorioallantoic membrane (CAM) assay. Format: in vivo. As to conditions: chicken embryo CAM, each group 5 eggs, p<0.05.
From the text: as §1
Each group consists of 5 eggs.

The subject of data set [7] is endothelial cells. Kind of data set: wound scratch healing assay. The following applies: 1 and 10 μM, 9 hours. The data set is classed as cell-based. On the procedure: The upper two images show the migration of endothelial cells into scratch area without treatment (left side) an in the presence of Lag2 (right side). The two images at the bottom are the control images of the scratch size at 0 hours.

Take `C/C=C(/C)C(=O)OC[C@H]1[C@@H](Cc2ccc(OC)c(OC)c2)CO[C@@H]1c1ccc(OC)c(OC)c1` [leoligin, [(2S,3R,4R)-4-(3,4-dimethoxybenzyl)-2-(3,4-dimethoxyphenyl)tetrahydrofuran-3-yl]methyl (2Z)-2-methylbut-2-enoat]: the “wound healing (in words)” value in data set [1] (leoligin 100 μM topical) is “can successfully be used to promote wound healing”. The “time until wound closure after surgery, mean value” in data set [1] (leoligin 100 μM topical, N = 5) is listed as 19.4 days. For the same compound, the “time until wound closure after surgery, individual wounds” value in data set [1] (situs filled with solution containing leoligin at 100 μM, topical, inspection every 24 hours, blinded, listed as Leo) is 19 days and 20 days and 16 days and 21 days (2×). For the same compound, in data set [2], the “effect on intimal hyperplasia of venous bypass grafts” value is “inhibits intimal hyperplasia of venous bypass grafts”. The “induction of cell death” value in data set [3] was “did not induce cell death”.
For the compound `C/C=C(/C)C(=O)OC[C@H]1[C@@H](Cc2ccc(OC)c(OC)c2)CO[C@@H]1c1cc(OC)c(OC)c(OC)c1` [5-methoxy-leoligin, [(2S,3R,4R)-4-(3,4-dimethoxybenzyl)-2-(3,4,5-trimethoxyphenyl)tetrahydrofuran-3-yl]methyl-(2Z)-2-methylbut-2-enoat], the “capillary formation (tube-like structures)” value is reported as “significant increase in capillary formation” in data set [4] and “dose-depentently supported capillary formation” in data set [4] (listed as LaG2). The “number and length of angiogenic sprouts (cumulative sprout length)” value is “significantly enhanced both the length and number of angiogenic sprouts” in data set [5]; “significant increase of sprout number and lengths” in data set [5] (listed as LaG2). Moreover, the “vascular density / blood vessel formation” value is “significantly increased the vascular density” in data set [6] and “dose-dependently supported embryonic blood vessel formation” in data set [6] (listed as LaG2). Moreover, the “migration of endothelial cells into scratch area / wound healing” value in data set [7] is “promotes the migration of endothelial cells into damaged tissue and stimulates wound healing”.
